Test results from patent publication US9573899B2, “USP7 inhibitor compounds and methods of use” (Genentech, Inc., priority 2015, dated 2017).

How the values were obtained:
[1] = tested on: MCF-7, U Os, normal osteoblast, MDA-MB157 and SaOs cell lines; test: CellTiter-Glo viability of tumor, matched normal and p53 null cell lines (FIG. 9); type: cell-based
Procedure: (§1) 2,500-5,000 cells were seeded in 1-well of a 96-well plate (Corning; 3904). The following day, the media was changed from normal (10%) to low serum (0.5%) containing vehicle (DMSO) or compounds. 16-24 h later FBS was added to each well to bring serum levels back to normal (10%). Cells were then allowed to grow for 2 days. All treatments were done in triplicate.
(§2) Seventy two hours after compounds were added, CellTitre Glo (CTG) reagent was added following the protocol provided by the manufacturer (Promega). In the experiment to test compound dependency on USP7, 3× more USP7 null cells were plated per well (7,500 vs. 2,500 for wild-type (WT) cells), given the slower proliferation of USP7 null cells. For the multiple myeloma experiment, cells seeded in low serum and treated with compounds immediately. Twenty four hours later, serum was added back to normal levels. CTG assay was done 24 h later i.e. 48 h after compounds were added instead of 72 hrs later for the adherent cells.

[2] = tested on: p21 in KMS-21BM and KMS-28PE multiple myeloma cells; test: Western blot in multiple myeloma cells (FIG. 13B); type: cell-based; conditions: compared to 89
Procedure: (§3) In 24-well plates, 0.10-0.15×10^6 (adherent) or 0.5×10^6 (suspension) cells were treated with 15 μM or 2.5 μM compounds, respectively, for 24 h in low serum prior to lysis for Western Blot analysis.

[3] = tested on: p53 and p21 in p53 wild-type breast cancer and osteosarcoma cells; test: Western blot of p53 and p21 in breast cancer, osteosarcoma and normal cells (FIG. 12A); type: cell-based; conditions: 15 μM, <24 h, low serum; p53 wild-type breast cancer and osteosarcoma cells but not normal cells
Procedure: as §3

USP5 = target: T1, USP5 (Homo sapiens, UniProt P45974); test: Ub-Rho110 DUB assay, Table 2, USP5
T1 sequence (P45974 1-858): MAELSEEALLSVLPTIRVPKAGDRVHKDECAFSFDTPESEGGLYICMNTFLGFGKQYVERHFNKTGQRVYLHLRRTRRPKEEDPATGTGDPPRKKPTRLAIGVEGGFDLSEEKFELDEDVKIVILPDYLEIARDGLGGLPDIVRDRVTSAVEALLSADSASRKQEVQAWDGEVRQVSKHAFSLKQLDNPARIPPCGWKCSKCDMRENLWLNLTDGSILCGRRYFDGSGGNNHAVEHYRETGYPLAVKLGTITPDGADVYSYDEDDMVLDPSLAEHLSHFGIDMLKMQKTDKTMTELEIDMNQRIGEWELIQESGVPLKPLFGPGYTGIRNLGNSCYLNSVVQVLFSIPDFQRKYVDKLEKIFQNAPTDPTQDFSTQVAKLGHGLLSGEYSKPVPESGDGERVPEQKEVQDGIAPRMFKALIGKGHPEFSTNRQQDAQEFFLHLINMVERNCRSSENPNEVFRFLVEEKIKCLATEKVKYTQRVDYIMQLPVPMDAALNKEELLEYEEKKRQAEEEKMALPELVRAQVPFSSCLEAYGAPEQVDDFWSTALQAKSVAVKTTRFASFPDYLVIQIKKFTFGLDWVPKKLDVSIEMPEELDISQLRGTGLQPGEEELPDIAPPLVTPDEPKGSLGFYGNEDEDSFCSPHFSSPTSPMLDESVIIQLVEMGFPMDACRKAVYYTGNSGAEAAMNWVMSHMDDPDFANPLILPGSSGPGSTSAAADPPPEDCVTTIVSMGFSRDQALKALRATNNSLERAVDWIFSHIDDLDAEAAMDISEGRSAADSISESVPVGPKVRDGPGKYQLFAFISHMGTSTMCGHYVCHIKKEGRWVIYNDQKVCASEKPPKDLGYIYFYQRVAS

[4] = tested on: U2Os p53 WT osteosarcoma cells; test: Incucyte cell proliferation and caspase activity, U2Os (FIG. 11, 16); type: cell-based; conditions: U2Os p53 WT compared to SaOs p53 null cells; compared to 89
Procedure: 2,500-5,000 cells were seeded in 1-well of a 96-well plate (Corning; 3904). The following day, the media was changed from normal (10%) to low serum (0.5%) containing vehicle (DMSO) or compounds. 16-24 h later FBS was added to each well to bring serum levels back to normal (10%). Cells were then allowed to grow for 2 days. All treatments were done in triplicate. The day after cells were seeded, the media was changed to low serum media containing 2 μM CellEvent Caspase 3/7 reagent (Life Technologies; C10423) and compounds. The plates were placed in an IncuCyte (Essen Bioscience, Inc.) live cell imager and scanning was started 15-20 mins after. IncuCyte™ ZOOM facilitates live-cell monitoring via customized imaging protocols. Images were taken every 2 h for at least 3 days, using a 10× objective. Phase contrast was used to measure cell confluency/density while green fluorescence was used to measure caspase activity. The images were analyzed using IncuCyte software (Basic Analysis parameters) and a ratio of caspase activity to cell density was determined.

[5] = tested on: HCT116 cells (wild type and USP7 null); test: CellTitre-Glo cell viability, HCT116 wild type and USP7 null (FIG. 4); type: cell-based, Human; conditions: HCT116 wild type versus USP7 null
Procedure: as §1, §2

CCc1c(-c2ccc3[nH]ncc3c2)cnc(N)c1-c1ccc(O)cc1 [Compound 88, 4-[2-amino-4-ethyl-5-(1H-indazol-5-yl)-3-pyridyl]phenol]
cell viability (CellTiter-Glo), wild-type p53 tumor cell lines ([1]; MCF-7 and U Os, relative to compound 89): decreased viability | cell viability (CellTiter-Glo), matched normal and p53 null cell lines ([1]; normal osteoblast cell lines, p53 null MDA-MB157 and SaOs): do not show similar decreases in cell viability | p21 levels (western blot) [2]: increases p21 levels | p53 and p21 levels (western blot) [3]: increases p53 and p21 levels | IC50 (USP5): 18.6 µM | cell viability (Incucyte proliferation and caspase activity) [4]: decreases cell viability | cell viability [5]: USP7-dependent decrease in viability
